Experimental data published in patent US20220213092A1, “BICYCLIC PYRAZOLE BRUTON'S TYROSINE KINASE INHIBITORS” (AbbVie Inc., priority 2020, published 2022).
pIC50: −log10 of the molar value. Where two headings read alike, the source gives them in different places.

Tests used:
[1] = target: BLK (Homo sapiens, UniProt P51451); assay: Other kinase MSA: BLK; format: biochemical
Experimental: (§1) Kinase activity, unless otherwise indicated, was measured in vitro using an electrophoretic mobility shift assay (MSA). The phosphorylation of a peptide substrate by BTK and other kinases was measured. The kinase reactions were assembled in a total volume of 25 μL per well in 384 well plates. The following was added to each well: compound buffer (or control); enzyme buffer; and substrate buffer, as further described below.
(§2) Enzyme and compound/inhibitor were optionally pre-incubated. To each well was added: 8 μL of 2.5×ATP and substrate in 1× Master Buffer (1× Master Buffer as described above). The plate was incubated at room temperature for 3 hours. […] OG488 was Oregon Green dye, which was conjugated to the peptide substrate. […] The kinase activity for the kinases in Table 3 were measured at 3 hours incubation time, except that in the case of MAP2K1 and MAP2K2 assay, pre-activation of ERK was done for 30 min with 6 μM of ATP, and then the detection of activated ERK in the presence of compounds was done after 60 minutes of incubation.
(§3) The terminated reactions were analyzed using a 12 channel LABCHIP® 3000 microfluidic detection instrument (available from Caliper Life Sciences, Waltham, Mass.). […] Change in the relative fluorescence intensity of the substrate and product peaks was the parameter measured, reflecting enzyme activity. […]

[2] = target: EGFR (Homo sapiens, UniProt P00533); assay: Other kinase MSA: EGFR; format: biochemical; conditions: 5 μM ATP, CSKtide substrate, 3 hours; read-out: IC50, Enzyme EGFR
EGFR, sequence (P00533 25-1210, species assumed): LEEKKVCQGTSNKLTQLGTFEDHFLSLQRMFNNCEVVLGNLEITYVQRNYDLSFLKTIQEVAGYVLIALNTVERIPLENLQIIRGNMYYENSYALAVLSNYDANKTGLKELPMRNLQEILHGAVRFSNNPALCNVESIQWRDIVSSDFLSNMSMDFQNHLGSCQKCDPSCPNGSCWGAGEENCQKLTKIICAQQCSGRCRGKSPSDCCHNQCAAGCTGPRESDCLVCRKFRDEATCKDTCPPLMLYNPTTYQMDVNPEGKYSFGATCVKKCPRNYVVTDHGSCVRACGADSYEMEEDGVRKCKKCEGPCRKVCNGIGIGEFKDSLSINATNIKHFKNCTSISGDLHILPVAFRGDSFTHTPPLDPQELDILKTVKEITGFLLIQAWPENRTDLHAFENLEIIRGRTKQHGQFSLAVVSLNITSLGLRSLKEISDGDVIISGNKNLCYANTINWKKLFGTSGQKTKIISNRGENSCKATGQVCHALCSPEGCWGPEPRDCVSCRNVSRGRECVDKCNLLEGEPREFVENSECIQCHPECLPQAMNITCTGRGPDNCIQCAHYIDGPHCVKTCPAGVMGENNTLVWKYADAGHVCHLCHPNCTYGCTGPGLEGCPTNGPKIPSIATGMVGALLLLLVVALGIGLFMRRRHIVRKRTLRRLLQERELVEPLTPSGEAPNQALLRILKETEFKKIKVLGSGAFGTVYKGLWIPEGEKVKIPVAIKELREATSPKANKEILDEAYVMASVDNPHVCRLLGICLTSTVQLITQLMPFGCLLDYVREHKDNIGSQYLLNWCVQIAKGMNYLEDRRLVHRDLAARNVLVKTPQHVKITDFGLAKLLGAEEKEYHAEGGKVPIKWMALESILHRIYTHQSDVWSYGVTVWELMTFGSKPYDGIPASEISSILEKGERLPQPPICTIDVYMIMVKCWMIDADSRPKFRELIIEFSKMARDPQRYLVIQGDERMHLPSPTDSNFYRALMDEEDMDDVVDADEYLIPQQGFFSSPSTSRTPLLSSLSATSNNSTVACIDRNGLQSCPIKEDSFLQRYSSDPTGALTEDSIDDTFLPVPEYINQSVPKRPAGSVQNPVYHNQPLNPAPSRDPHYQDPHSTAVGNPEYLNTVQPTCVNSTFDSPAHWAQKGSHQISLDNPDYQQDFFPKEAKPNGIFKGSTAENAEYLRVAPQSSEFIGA
Experimental: as §1, §2, §3

[3] = Chemical inhibition in human hepatocytes (intrinsic clearance with and without CYP inhibitors); format: in vitro ADME; conditions: human, human hepatocyte suspension
Experimental: (§4) The contribution of CYPs to the metabolism of Compound 6 was evaluated in human hepatocyte suspension (about 500,000 cells/mL) (hepatocytes from BioIVT, Inc.) treated with or without azamulin (CYP3A4 mechanism-based inhibitor) or 1-aminobenzotriazole (ABT)/tienilic acid (a pan-CYP inhibitor regimen) for 30 minutes. The hepatocyte suspension with inhibitors was preincubated with 2× azamulin or 1-ABT/tienilic acid in Williams' media E and then added to 2× Compound 6 in media to give a final concentrations of 2.5 μM azamulin or 0.5 mM 1-ABT/1.5 μM tienilic acid and 0.5 μM Compound 6, respectively.
(§5) Final incubation volume was 25 μL. Samples were incubated in 384-well plates at 37° C. with 5% CO2 and gentle shaking. At each time point (0, 15, 30, 60, 120, and 240 minutes), samples in the incubation plates were quenched with acetonitrile:MeOH (95:5, v:v) with carbutamide as internal standard (quench ration 3:1). The samples were centrifuged, and the supernatant was analyzed using LC-MS/MS.
(§6) Quantitation of the substrate depletion in recombinant CYPs and FMO3 phenotyping, chemical inhibition in hepatocytes, and enzyme kinetics assays were analyzed by monitoring substrate depletion using LC-MS/MS.
(§7) The intrinsic clearance of Compound 6 in rCYP and hepatocytes was determined by integrating the parent peak on the chromatograms, and the extent of substrate depletion measured by comparing parent peak area loss over time. The elimination rate constant (k, transformation of % parent remaining versus incubation time: y=a*e^−(kt). Where y is the % parent remaining, t (min) is the time point within the incubation, and a is the % parent remaining at time 0 minute. From this, intrinsic clearance in rCYP (CLint, CYP, expressed in units of μL/min/pmol CYP) and in hepatocytes (CLint, hep, expressed in units of μL/min/million cells were derived using the equations below:
(§8) Clint,hep=k*1000/Cell Concentration (million cells/mL)
(§9) The fraction of metabolism inhibited by the chemical treatment in human hepatocytes was calculated using the equation:
(§10) fm,CYP=[Clint,hep(no inhibitor)−Clint,hep(PanCYP or azamulin])/[Clint, hep(no inhibitor)]

[4] = test system: human hepatocyte suspension; assay: as above; format: in vitro ADME
Experimental: as §4, §5, §6, §7, §8, §9, §10

[5] = test system: recombinant human CYP1A2, 2B6, 2C8, 2C9, 2C19, 2D6, 3A4, and FMO3; assay: Human recombinant CYP and FMO3 phenotyping; format: in vitro ADME; conditions: of CYPs tested (1A2, 2B6, 2C8, 2C9, 2D6, 3A4) and FMO3
Experimental: The involvement of CYPs and FMO3 in the metabolism of Compound 6 was evaluated using recombinant human CYP1A2, 2B6, 2C8, 2C9, 2C19, 2D6, 3A4, and FMO3 (CYPs and FMO3 from Corning Life Sciences). Incubations contained 0.5 μM of Compound 6, 100 pmol/mL of each CYP isoform, or 0.5 mg/mL of FMO3 isoform, and 1 mM NADPH cofactor in 50 mM potassium phosphate buffer at pH 7.4. All incubations were pre-warmed at 37° C. for 10 minutes, followed by addition of cofactor to initiate the reaction. Incubations were carried out for 60 minutes at 37° C. At each time point (0, 5, 10, 20, 30 and 60 minutes), an aliquot of sample in the incubation pleases was taken and dispersed into a quench plate containing 3-fold volume of acetonitrile and carbutamide as an internal standard. The samples were centrifuged, and the supernatant was analyzed using LC-MS/MS.
as §6
The intrinsic clearance of Compound 6 in rCYP and hepatocytes was determined by integrating the parent peak on the chromatograms, and the extent of substrate depletion measured by comparing parent peak area loss over time. […]

BLK, sequence (P51451 whole entry, species assumed): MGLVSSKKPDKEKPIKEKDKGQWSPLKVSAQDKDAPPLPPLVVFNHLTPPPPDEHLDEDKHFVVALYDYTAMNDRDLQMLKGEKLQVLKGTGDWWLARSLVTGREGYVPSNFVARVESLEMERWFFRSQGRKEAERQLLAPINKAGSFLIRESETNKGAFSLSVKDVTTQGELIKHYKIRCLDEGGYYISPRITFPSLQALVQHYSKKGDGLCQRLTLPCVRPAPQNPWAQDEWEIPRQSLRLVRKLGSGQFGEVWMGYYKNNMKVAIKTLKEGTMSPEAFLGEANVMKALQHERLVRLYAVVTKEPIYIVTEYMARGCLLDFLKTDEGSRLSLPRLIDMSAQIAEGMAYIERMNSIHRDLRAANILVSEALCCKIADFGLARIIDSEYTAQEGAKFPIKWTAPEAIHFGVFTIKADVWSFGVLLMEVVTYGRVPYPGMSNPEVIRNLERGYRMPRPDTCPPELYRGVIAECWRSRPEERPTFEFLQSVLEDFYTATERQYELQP

pIC50 [1]: 6.86
pIC50 [2]: 6.07
hepatocyte CLint at 0.5 μM ([3]; 0.5 μM Compound 6, 0.5 mM 1-ABT/1.5 μM tienilic acid, read-out: CLint, PAN CYP): 8.23 µL/min/1e6 cells
hepatocyte CLint at 0.5 μM ([3]; 0.5 μM Compound 6, no inhibitor, read-out: CLint, no inhibitor): 13.3 µL/min/1e6 cells
hepatocyte CLint at 0.5 μM ([3]; with 2.5 μM azamulin (CYP3A4 mechanism-based inhibitor), 0.5 μM Compound 6, 2.5 μM azamulin (CYP3A4 inhibitor), read-out: CLint, Azamulin): 9.15 µL/min/1e6 cells
% Total CYP Contribution In Vitro ([4]; calculated from the PAN CYP inhibitor regimen of 1-ABT and tienilic acid, human hepatocyte suspensions): 38.3%
CYP contribution to the hepatic metabolism ([4]; following incubation with a pan-CYP inhibitor cocktail in human hepatocytes): approximately 30%
% Inhibition by azamulin ([4]; fraction of clearance in human hepatocytes inhibited by azamulin): 31.4%
non-CYP hepatic enzymes contribution to the remaining clearance ([4]; human hepatocytes): about 70%
Compound: C=CC(=O)N1CCN([C@@H]2CCNc3c2nn(-c2ccc(Oc4ccccc4)cc2)c3C(N)=O)CC1 [Example 6, (7R)-2-(4-phenoxyphenyl)-7-[4-(prop-2-enoyl)piperazin-1-yl]-4,5,6,7-tetrahydro-2H-pyrazolo[4,3-b]pyridine-3-carboxamide]
major contributing enzyme in metabolism [5]: CYP3A4 was identified as the major contributing enzyme
